Where a name gives a salt, the structure may show the parent alone.
Columns and labels:
Assay type in all cases: biochemical
[1] = biological target: T1, Recombinant Human Anaplastic Lymphoma Kinase (Homo sapiens, UniProt Q9UM73); test: ALK HTRF kinase assay; details: Table B1; cells without percent sign
T1 construct: purchased Invitrogen, Carlsbad, Calif
Summary of the method: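 Compounds were incubated with recombinant human ALK and a biotin-tagged peptide substrate. Product was captured with streptavidin-APC and probed with a europium anti-phosphotyrosine antibody, and plates were read for time-resolved fluorescence. Dose-response data were fitted to derive IC50.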

[2] = biological target: T2, human JAK2 (a.a. 828-1132) (Homo sapiens, UniProt O60674); test: In vitro JAK kinase assay (HTRF, phosphorylation of a biotinylated peptide), JAK2; details: Table B1
T2 construct: JAK2 (a.a. 828-1132); His tag (N); made in house; host or cells: insect cells (baculovirus)
T2 sequence (O60674 828-1132): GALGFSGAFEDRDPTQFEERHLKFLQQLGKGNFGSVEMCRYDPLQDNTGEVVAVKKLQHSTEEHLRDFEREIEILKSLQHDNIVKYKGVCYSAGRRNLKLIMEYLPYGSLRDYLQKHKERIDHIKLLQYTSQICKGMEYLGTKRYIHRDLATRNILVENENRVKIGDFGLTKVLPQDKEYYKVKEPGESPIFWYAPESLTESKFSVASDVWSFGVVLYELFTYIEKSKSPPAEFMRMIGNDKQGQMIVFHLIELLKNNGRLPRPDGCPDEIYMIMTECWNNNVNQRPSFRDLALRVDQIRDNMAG
Summary of the method: (§1)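 Phosphorylation of a biotinylated peptide by the JAK kinase domain, detected by HTRF with Eu-Py20 and SA-APC. ATP was 90 μM for JAK1, 30 μM for JAK2 and 3 μM for JAK3. Reactions ran 1 h at room temperature and were stopped with EDTA, followed by 40 min antibody binding.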

[3] = biological target: T3, human JAK3 (a.a. 781-1124) (Homo sapiens, UniProt P52333); test: In vitro JAK kinase assay (HTRF, phosphorylation of a biotinylated peptide), JAK3; details: Table B1
T3 construct: JAK3 (a.a. 781-1124); His tag (N); made in house; host or cells: insect cells (baculovirus)
T3 sequence (P52333 781-1124): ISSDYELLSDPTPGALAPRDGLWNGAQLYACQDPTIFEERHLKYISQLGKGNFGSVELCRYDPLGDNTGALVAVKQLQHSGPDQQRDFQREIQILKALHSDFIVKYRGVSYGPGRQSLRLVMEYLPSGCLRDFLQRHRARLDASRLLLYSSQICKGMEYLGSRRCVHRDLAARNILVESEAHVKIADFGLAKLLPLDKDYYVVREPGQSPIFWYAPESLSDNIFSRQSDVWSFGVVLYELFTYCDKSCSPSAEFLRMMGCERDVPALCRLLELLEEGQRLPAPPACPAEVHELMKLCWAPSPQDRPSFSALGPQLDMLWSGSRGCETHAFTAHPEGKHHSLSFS
Summary of the method: as §1

[4] = biological target: T4, human JAK1 (a.a. 837-1142) (Homo sapiens, UniProt P23458); test: In vitro JAK kinase assay (HTRF, phosphorylation of a biotinylated peptide), JAK1; details: Table B1; read-out: JAK1 IC50
T4 construct: human JAK1 (a.a. 837-1142); His tag (N); made in house; host or cells: insect cells (baculovirus)
T4 sequence (P23458 849-1154): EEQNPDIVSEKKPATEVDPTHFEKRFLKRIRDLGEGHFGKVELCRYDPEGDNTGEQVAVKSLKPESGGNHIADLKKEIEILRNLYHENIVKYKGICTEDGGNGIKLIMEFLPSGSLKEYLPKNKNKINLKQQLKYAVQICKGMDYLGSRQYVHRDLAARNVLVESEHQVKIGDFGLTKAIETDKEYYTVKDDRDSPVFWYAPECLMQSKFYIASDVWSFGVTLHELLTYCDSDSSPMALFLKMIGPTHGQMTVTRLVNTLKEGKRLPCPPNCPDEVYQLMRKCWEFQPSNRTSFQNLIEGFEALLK
Summary of the method: as §1

[5] = biological target: TYK2 (Homo sapiens, UniProt P29597); test: TYK2 kinase inhibition (Table A1); details: Table B1
Chain of TYK2 (P29597 whole entry): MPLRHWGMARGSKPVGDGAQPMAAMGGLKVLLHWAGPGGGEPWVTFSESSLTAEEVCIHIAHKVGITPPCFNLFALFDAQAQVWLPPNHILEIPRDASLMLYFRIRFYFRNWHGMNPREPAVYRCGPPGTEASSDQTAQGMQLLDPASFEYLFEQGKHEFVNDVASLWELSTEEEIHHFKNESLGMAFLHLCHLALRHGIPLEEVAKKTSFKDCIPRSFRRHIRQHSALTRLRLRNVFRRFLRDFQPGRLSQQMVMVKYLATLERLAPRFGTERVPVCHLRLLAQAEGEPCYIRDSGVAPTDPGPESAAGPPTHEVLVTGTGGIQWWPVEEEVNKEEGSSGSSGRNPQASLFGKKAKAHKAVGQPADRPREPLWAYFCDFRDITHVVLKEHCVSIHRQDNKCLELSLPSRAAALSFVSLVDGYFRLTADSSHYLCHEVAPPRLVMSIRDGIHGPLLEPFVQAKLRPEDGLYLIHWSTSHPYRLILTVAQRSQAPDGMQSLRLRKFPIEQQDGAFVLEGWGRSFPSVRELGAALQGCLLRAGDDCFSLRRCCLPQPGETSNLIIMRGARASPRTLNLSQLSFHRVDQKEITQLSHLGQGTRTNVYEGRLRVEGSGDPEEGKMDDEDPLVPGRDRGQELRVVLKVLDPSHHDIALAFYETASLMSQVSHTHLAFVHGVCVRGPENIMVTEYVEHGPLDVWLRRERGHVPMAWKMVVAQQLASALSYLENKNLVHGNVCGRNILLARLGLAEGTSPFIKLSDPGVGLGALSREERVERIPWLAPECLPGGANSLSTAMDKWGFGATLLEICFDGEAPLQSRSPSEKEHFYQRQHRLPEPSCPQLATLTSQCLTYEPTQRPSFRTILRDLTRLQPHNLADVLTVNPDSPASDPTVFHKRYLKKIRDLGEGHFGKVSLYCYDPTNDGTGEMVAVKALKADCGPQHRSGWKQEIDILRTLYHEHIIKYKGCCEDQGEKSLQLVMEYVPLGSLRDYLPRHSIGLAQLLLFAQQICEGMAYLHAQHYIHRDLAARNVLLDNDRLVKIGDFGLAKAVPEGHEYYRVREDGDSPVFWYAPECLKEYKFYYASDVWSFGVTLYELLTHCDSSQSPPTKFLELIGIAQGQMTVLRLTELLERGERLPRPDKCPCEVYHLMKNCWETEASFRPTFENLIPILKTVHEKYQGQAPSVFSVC

T1 sequence (Q9UM73 19-1620): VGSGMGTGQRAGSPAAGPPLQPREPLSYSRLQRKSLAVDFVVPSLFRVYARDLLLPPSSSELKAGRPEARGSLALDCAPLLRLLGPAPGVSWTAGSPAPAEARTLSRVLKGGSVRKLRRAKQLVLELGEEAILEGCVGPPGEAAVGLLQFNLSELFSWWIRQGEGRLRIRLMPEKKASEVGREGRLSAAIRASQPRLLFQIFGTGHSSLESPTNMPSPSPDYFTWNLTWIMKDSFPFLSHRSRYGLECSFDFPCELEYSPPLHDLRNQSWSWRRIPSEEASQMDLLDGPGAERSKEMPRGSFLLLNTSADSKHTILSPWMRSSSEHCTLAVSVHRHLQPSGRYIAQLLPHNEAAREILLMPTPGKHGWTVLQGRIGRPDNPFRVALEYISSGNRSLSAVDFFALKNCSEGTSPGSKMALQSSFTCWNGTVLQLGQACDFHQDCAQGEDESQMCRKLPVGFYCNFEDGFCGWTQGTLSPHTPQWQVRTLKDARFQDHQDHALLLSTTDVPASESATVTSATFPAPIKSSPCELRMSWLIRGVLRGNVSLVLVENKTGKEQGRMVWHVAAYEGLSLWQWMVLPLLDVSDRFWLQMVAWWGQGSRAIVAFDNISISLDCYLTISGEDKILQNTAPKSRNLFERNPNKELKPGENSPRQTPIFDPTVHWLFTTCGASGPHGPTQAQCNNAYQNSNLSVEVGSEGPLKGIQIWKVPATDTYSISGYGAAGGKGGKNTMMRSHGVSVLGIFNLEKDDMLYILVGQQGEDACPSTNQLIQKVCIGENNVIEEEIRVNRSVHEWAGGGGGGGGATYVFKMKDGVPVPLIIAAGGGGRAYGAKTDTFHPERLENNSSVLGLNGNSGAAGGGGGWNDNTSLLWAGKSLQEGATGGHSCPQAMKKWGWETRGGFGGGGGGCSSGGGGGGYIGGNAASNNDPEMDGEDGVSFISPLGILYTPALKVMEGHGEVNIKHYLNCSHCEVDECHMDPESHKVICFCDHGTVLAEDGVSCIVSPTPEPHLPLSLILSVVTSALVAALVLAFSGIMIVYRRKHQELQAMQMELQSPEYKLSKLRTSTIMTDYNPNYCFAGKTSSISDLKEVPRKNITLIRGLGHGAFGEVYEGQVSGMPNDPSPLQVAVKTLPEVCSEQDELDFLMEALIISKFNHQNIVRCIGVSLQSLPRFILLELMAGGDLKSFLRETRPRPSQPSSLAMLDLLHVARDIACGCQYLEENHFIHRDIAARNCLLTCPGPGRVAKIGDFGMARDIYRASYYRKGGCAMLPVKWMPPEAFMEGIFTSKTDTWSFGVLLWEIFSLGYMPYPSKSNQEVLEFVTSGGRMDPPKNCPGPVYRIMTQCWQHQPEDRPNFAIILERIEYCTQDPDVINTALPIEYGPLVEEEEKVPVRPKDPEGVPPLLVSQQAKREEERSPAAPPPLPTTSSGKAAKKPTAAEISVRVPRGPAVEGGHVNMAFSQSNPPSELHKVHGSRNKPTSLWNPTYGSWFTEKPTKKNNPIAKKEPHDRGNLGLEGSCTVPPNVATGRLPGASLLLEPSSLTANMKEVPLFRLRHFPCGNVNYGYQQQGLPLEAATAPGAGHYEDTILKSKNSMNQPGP

SMILES | IC50 [1] [nM] | IC50 [2] [nM] | IC50 [3] [nM] | IC50 [4] [nM] | IC50 [5] [nM]
O=C(Nc1ccc2cc1CCc1cccc(c1)Nc1ncc(Cl)c(n1)N2)c1ccc(F)cc1 [Example B49, N-[6-Chloro-2,4,8,22-tetraazatetracyclo[14.3.1.1(3,7).1(9,13)]docosa-1(20), 3(22),4,6,9(21),10,12,16,18-nonaen-12-yl]-4-fluorobenzamide trifluoroacetate] | 80 | 0.54 | 3.6 | 0.59 | 1.4
Cn1cccc1C(=O)Nc1ccc2cc1CCc1cccc(c1)Nc1ncc(Cl)c(n1)N2 [Example B50, N-[6-Chloro-2,4,8,22-tetraazatetracyclo[14.3.1.1(3,7).1(9,13)]docosa-1(20), 3(22),4,6,9(21),10,12,16,18-nonaen-12-yl]-1-methyl-1H-pyrrole-2-carboxamide trifluoroacetate] | 230 | 0.28 | 2.5 | 0.44 | 2.3
Cn1cncc1C(=O)Nc1ccc2cc1CCc1cccc(c1)Nc1ncc(Cl)c(n1)N2 [Example B51, N-[6-Chloro-2,4,8,22-tetraazatetracyclo[14.3.1.1(3,7).1(9,13)]docosa-1(20), 3(22),4,6,9(21),10,12,16,18-nonaen-12-yl]-1-methyl-1H-imidazole-5-carboxamide bis(trifluoroacetate)] | 300 | 0.91 | 4.7 | 2.7 | 3.3
O=C(Nc1ccc2cc1CCc1cccc(c1)Nc1ncc(Cl)c(n1)N2)c1nccs1 [Example B52, N-[6-Chloro-2,4,8,22-tetraazatetracyclo[14.3.1.1(3,7).1(9,13)]docosa-1(20), 3(22),4,6,9(21),10,12,16,18-nonaen-12-yl]-1,3-thiazole-2-carboxamide trifluoroacetate] | 910 | 1.8 | 17 | 3.7 | 6.3
O=C(Nc1ccc2cc1CCc1cccc(c1)Nc1ncc(Cl)c(n1)N2)c1ccno1 [Example B53, N-[6-Chloro-2,4,8,22-tetraazatetracyclo[14.3.1.1(3,7).1(9,13)]docosa-1(20), 3(22),4,6,9(21),10,12,16,18-nonaen-12-yl]isoxazole-5-carboxamide trifluoroacetate] | 720 | 2.3 | 17 | 2.8 | 8
CCC(=O)Nc1ccc2cc1CCc1cccc(c1)Nc1ncc(Cl)c(n1)N2 [Example B54, N-[6-Chloro-2,4,8,22-tetraazatetracyclo[14.3.1.1(3,7).1(9,13)]docosa-1(20), 3(22),4,6,9(21),10,12,16,18-nonaen-12-yl]propanamide trifluoroacetate] | 970 | 3.9 | 5.9 | 4.9 | 14
CC(C)C(=O)Nc1ccc2cc1CCc1cccc(c1)Nc1ncc(Cl)c(n1)N2 [Example B55, N-[6-Chloro-2,4,8,22-tetraazatetracyclo[14.3.1.1(3,7).1(9,13)]docosa-1(20), 3(22),4,6,9(21),10,12,16,18-nonaen-12-yl]-2-methylpropanamide trifluoroacetate] | 930 | 2.7 | 1.1 | 12 | 23
CCCC(=O)Nc1ccc2cc1CCc1cccc(c1)Nc1ncc(Cl)c(n1)N2 [Example B56, N-[6-Chloro-2,4,8,22-tetraazatetracyclo[14.3.1.1(3,7).1(9,13)]docosa-1(20), 3(22),4,6,9(21),10,12,16,18-nonaen-12-yl]butanamide trifluoroacetate] | 720 | 2 | 1.5 | 5.9 | 14

Continued, values first:

IC50 [1] [nM] | IC50 [2] [nM] | IC50 [3] [nM] | IC50 [4] [nM] | IC50 [5] [nM] | SMILES
2200 | 5.3 | 18 | 12 | 39 | O=C(Nc1ccc2cc1CCc1cccc(c1)Nc1ncc(Cl)c(n1)N2)C1CCC1 [Example B57, N-[6-Chloro-2,4,8,22-tetraazatetracyclo[14.3.1.1(3,7).1(9,13)]docosa-1(20), 3(22),4,6,9(21),10,12,16,18-nonaen-12-yl]cyclobutanecarboxamide hydrochloride]
> 1000 | 47 | 107 | 365 | 228 | CC(C)(C)C(=O)Nc1ccc2cc1CCc1cccc(c1)Nc1ncc(Cl)c(n1)N2 [Example B58, N-[6-Chloro-2,4,8,22-tetraazatetracyclo[14.3.1.1(3,7).1(9,13)]docosa-1(20), 3(22),4,6,9(21),10,12,16,18-nonaen-12-yl]-2,2-dimethylpropanamide trifluoroacetate]
700 | 2.4 | 5.1 | 2.4 | 5.3 | O=C(Nc1ccc2cc1CCc1cccc(c1)Nc1ncc(Cl)c(n1)N2)c1ccoc1 [Example B59, N-[6-Chloro-2,4,8,22-tetraazatetracyclo[14.3.1.1(3,7).1(9,13)]docosa-1(20), 3(22),4,6,9(21),10,12,16,18-nonaen-12-yl]-3-furamide trifluoroacetate]
> 1000 | 8.4 | 20 | 22 | 47 | O=C(Nc1ccc2cc1CCc1cccc(c1)Nc1ncc(Cl)c(n1)N2)C1CCCC1 [Example B60, N-[6-Chloro-2,4,8,22-tetraazatetracyclo[14.3.1.1(3,7).1(9,13)]docosa-1(20), 3(22),4,6,9(21),10,12,16,18-nonaen-12-yl]cyclopentanecarboxamide trifluoroacetate]
680 | 1.4 | 3 | 19 | 34 | CCC(C)C(=O)Nc1ccc2cc1CCc1cccc(c1)Nc1ncc(Cl)c(n1)N2 (centres unmarked) [Example B61, N-[6-Chloro-2,4,8,22-tetraazatetracyclo[14.3.1.1(3,7).1(9,13)]docosa-1(20), 3(22),4,6,9(21),10,12,16,18-nonaen-12-yl]-2-methylbutanamide trifluoroacetate]
210 | 1.9 | 4.8 | 1.8 | 2.7 | O=C(Nc1ccc2cc1CCc1cccc(c1)Nc1ncc(Cl)c(n1)N2)c1ccsc1 [Example B62, N-[6-Chloro-2,4,8,22-tetraazatetracyclo[14.3.1.1(3,7).1(9,13)]docosa-1(20), 3(22),4,6,9(21),10,12,16,18-nonaen-12-yl]thiophene-3-carboxamide trifluoroacetate]
600 | 12 | 56 | 18 | 34 | O=C(Nc1ccc2cc1CCc1cccc(c1)Nc1ncc(Cl)c(n1)N2)C1CCCCC1 [Example B63, N-[6-Chloro-2,4,8,22-tetraazatetracyclo[14.3.1.1(3,7).1(9,13)]docosa-1(20), 3(22),4,6,9(21),10,12,16,18-nonaen-12-yl]cyclohexanecarboxamide trifluoroacetate]
150 | 0.73 | 10 | 1.2 | 3.2 | N#Cc1ccc(C(=O)Nc2ccc3cc2CCc2cccc(c2)Nc2ncc(Cl)c(n2)N3)cc1 [Example B64, N-[6-Chloro-2,4,8,22-tetraazatetracyclo[14.3.1.1(3,7).1(9,13)]docosa-1(20), 3(22),4,6,9(21),10,12,16,18-nonaen-12-yl]-4-cyanobenzamide trifluoroacetate]
290 | 1.8 | 8.8 | 3.4 | 5.9 | N#Cc1cccc(C(=O)Nc2ccc3cc2CCc2cccc(c2)Nc2ncc(Cl)c(n2)N3)c1 [Example B65, N-[6-Chloro-2,4,8,22-tetraazatetracyclo[14.3.1.1(3,7).1(9,13)]docosa-1(20), 3(22),4,6,9(21),10,12,16,18-nonaen-12-yl]-3-cyanobenzamide trifluoroacetate]
310 | 1.6 | 13 | 3 | 4.5 | COc1cccc(C(=O)Nc2ccc3cc2CCc2cccc(c2)Nc2ncc(Cl)c(n2)N3)c1 [Example B66, N-[6-Chloro-2,4,8,22-tetraazatetracyclo[14.3.1.1(3,7).1(9,13)]docosa-1(20), 3(22),4,6,9(21),10,12,16,18-nonaen-12-yl]-3-methoxybenzamide trifluoroacetate]
220 | 1.9 | 15 | 3.2 | 6 | COc1ccc(C(=O)Nc2ccc3cc2CCc2cccc(c2)Nc2ncc(Cl)c(n2)N3)cc1 [Example B67, N-[6-Chloro-2,4,8,22-tetraazatetracyclo[14.3.1.1(3,7).1(9,13)]docosa-1(20), 3(22),4,6,9(21),10,12,16,18-nonaen-12-yl]-4-methoxybenzamide trifluoroacetate]

From patent US8871753B2, “Macrocyclic compounds and their use as kinase inhibitors” (Incyte Corporation, priority 2008, dated 2014)
